Each structure is given as a SMILES string.

One data set has as its target JAK1 (Homo sapiens (Human), UniProt P23458). Kind of data set: Biochemical JAK kinase assay (LanthaScreen), JAK1. Particulars: converted from pIC50 with Cheng-Prusoff equation. The procedure: (§1) Assay 1: Biochemical JAK Kinase Assays
(§2) A panel of four LanthaScreen JAK biochemical assays (JAK1, 2, 3 and Tyk2) were carried in a common kinase reaction buffer (50 mM HEPES, pH 7.5, 0.01% Brij-35, 10 mM MgCl2, and 1 mM EGTA). Recombinant GST-tagged JAK enzymes and a GFP-tagged STAT1 peptide substrate were obtained from Life Technologies.
(§3) Serially diluted compounds were pre-incubated with each of the four JAK enzymes and the substrate in white 384-well microplates (Corning) at ambient temperature for 1 h. ATP was subsequently added to initiate the kinase reactions in 10 μL total volume, with 1% DMSO. […] The plates were allowed to incubate at ambient temperature for 1 h before being read on the EnVision reader (Perkin Elmer).
(§4) For dose-response analysis, percent inhibition data were plotted vs. compound concentrations, and IC50 values were determined from a 4-parameter robust fit model with the Prism software (GraphPad Software). Results were expressed as pIC50 (negative logarithm of IC50) and subsequently converted to pKi (negative logarithm of dissociation constant, Ki) using the Cheng-Prusoff equation.
Background: Time-resolved FRET reads energy transfer from a long-lived donor to a nearby acceptor.

The next data set deals with JAK3 (Homo sapiens (Human), UniProt P52333). Kind of data set: Biochemical JAK kinase assay (LanthaScreen), JAK3. Particulars: converted from pIC50 with Cheng-Prusoff equation. How it is done: as §1, §2, §3, §4
Data set [1] concerns IL-13 induced STAT6 phosphorylation in BEAS-2B human lung epithelial cells. Kind of data set: Cellular JAKI potency assay (AlphaScreen), BEAS-2B. The data set is classed as cell-based. The following applies: BEAS-2B cells. The procedure:
Assay 2: Cellular JAKI Potency Assay
The AlphaScreen JAKI cellular potency assay was carried out by measuring interleukin-13 (IL-13, R&D Systems) induced STAT6 phosphorylation in BEAS-2B human lung epithelial cells (ATCC). The anti-STAT6 antibody (Cell Signaling Technologies) was conjugated to AlphaScreen acceptor beads (Perkin Elmer), while the anti-pSTAT6 (pTyr641) antibody (Cell Signaling Technologies) was biotinylated using EZ-Link Sulfo-NHS-Biotin (Thermo Scientific).
BEAS-2B cells were grown at 37° C. in a 5% CO2 humidified incubator in 50% DMEM/50% F-12 medium (Life Technologies) supplemented with 10% FBS (Hyclone), 100 U/mL penicillin, 100 μg/mL streptomycin (Life Technologies), and 2 mM GlutaMAX (Life Technologies). On day 1 of the assay, cells were seeded at a 7,500 cells/well density in white poly-D-lysine-coated 384-well plates (Corning) with 25 μL medium, and were allowed to adhere overnight in the incubator. On day 2 of the assay, the medium was removed and replaced with 12 μL of assay buffer (Hank's Balanced Salt Solution/HBSS, 25 mM HEPES, and 1 mg/ml bovine serum albumin/BSA) containing dose-responses of test compounds. Compounds were serially diluted in DMSO and then diluted another 1000-fold in media to bring the final DMSO concentration to 0.1%. Cells were incubated with test compounds at 37° C. for 1 h, and followed by the addition of 12 μl of pre-warmed IL-13 (80 ng/mL in assay buffer) for stimulation. After incubating at 37° C. for 30 min, the assay buffer (containing compound and IL-13) was removed, and 10 μL of cell lysis buffer (25 mM HEPES, 0.1% SDS, 1% NP-40, 5 mM MgCl2, 1.3 mM EDTA, 1 mM EGTA, and supplement with Complete Ultra mini protease inhibitors and PhosSTOP from Roche Diagnostics). The plates were shaken at ambient temperature for 30 min before the addition of detection reagents. A mixture of biotin-anti-pSTAT6 and anti-STAT6 conjugated acceptor beads was added first and incubated at ambient temperature for 2 h, followed by the addition of streptavidin conjugated donor beads (Perkin Elmer). After a minimum of 2 h incubation, the assay plates were read on the EnVision plate reader. AlphaScreen luminescence signals were recorded and utilized to calculate the percent inhibition values based on DMSO and background controls.
For dose-response analysis, percent inhibition data were plotted vs. compound concentrations, and IC50 values were determined from a 4-parameter robust fit model with the Prism software. Results may also be expressed as the negative logarithm of the IC50 value, pIC50.
Test compounds having a lower IC50 value or higher pIC50 value in this assay show greater inhibition of IL-13 induced STAT6 phosphorylation.
(Alpha assays give light when donor and acceptor beads are brought close together.)

For data set [2], the system named is IL-13 induced pSTAT6 induction in lung tissue. Kind of data set: Murine model of IL-13 induced pSTAT6 induction in lung tissue. The data set is classed as in vivo. Particulars: mouse lung, 1 mg/mL 50 μL oral aspiration, IL-13 challenge 4 h after dose, lungs at 5 hours. An excerpt:
Assay 4: Murine (Mouse) Model of IL-13 Induced pSTAT6 Induction in Lung Tissue
Il-13 is an important cytokine underlying the pathophysiology of asthma (Kudlacz et al. Eur. J. Pharmacol, 2008, 582,154-161). IL-13 binds to cell surface receptors activating members of the Janus family of kinases (JAK) which then phosphorylate STAT6 and subsequently activates further transcription pathways. In the described model, a dose of IL-13 was delivered locally into the lungs of mice to induce the phosphorylation of STAT6 (pSTAT6) which is then measured as the endpoint.
Adult balb/c mice from Harlan were used in the assay. On the day of study, animals were lightly anesthetized with isoflurane and administered either vehicle or test compound (1 mg/mL, 50 μL total volume over several breaths) via oral aspiration. Animals were placed in lateral recumbency post dose and monitored for full recovery from anesthesia before being returned to their home cage. Four hours later, animals were once again briefly anesthetized and challenged with either vehicle or IL-13 (0.03 μg total dose delivered, 50 μL total volume) via oral aspiration before being monitored for recovery from anesthesia and returned to their home cage. One hour after vehicle or IL-13 administration, lungs were collected for both pSTAT6 detection using an anti-pSTAT6 ELISA (rabbit mAb capture/coating antibody; mouse mAb detection/report antibody: anti-pSTAT6-pY641; secondary antibody: anti-mouse IgG-HRP) and analyzed for total drug concentration as described above in Assay 3.
Selected compounds of the invention were tested in the assay. Activity in the model is evidenced by a decrease in the level of pSTAT6 present in the lungs of treated animals at 5 hours compared to the vehicle treated, IL-13 challenged control animals. The difference between the control animals which were vehicle-treated, IL-13 challenged and the control animals which were vehicle-treated, vehicle challenged dictated the 0% and 100% inhibitory effect, respectively, in any given experiment.

The subject of data set [3] is Alternaria alternata-induced eosinophilic inflammation of the lung (BALF eosinophils). Kind of data set: Murine model of Alternaria alternata-induced eosinophilic inflammation of the lung. The data set is classed as in vivo. The following applies: mouse, oropharyngeal aspiration 0.03-1.0 mg/mL, BALF 48 h after challenge; maximum statistically significant inhibition. The source says: Assay 5: Murine Model of Alternaria alternata-Induced Eosinophilic Inflammation of the Lung
Airway eosinophilia is a hallmark of human asthma. Alternaria alternata is a fungal aeroallergen that can exacerbate asthma in humans and induces eosinophilic inflammation in the lungs of mice (Havaux et al. Clin Exp Immunol. 2005 February; 139(2):179-88).
Seven- to nine-week old male C57 mice from Taconic were used in the study. On the day of study, animals were lightly anesthetized with isoflurane and administered either vehicle or test compound (0.03-1.0 mg/mL, 50 μL total volume over several breaths) via oropharyngeal aspiration. Animals were placed in lateral recumbency post dose and monitored for full recovery from anesthesia before being returned to their home cage. One hour later, animals were once again briefly anesthetized and challenged with either vehicle or alternaria extract (200 ug total extract delivered, 50 μL total volume) via oropharyngeal aspiration before being monitored for recovery from anesthesia and returned to their home cage. Forty-eight hours after alternaria administration, bronchoalveolar lavage fluid (BALF) was collected and eosinophils were counted in the BALF using the Advia 120 Hematology System (Siemens). […]

Data set [4] in a line: Pharmacokinetics in plasma and lung in mouse. Particulars: oral aspiration, 0.2 mg/mL 50 μL, lung AUC (μg hr/g) / plasma AUC (μg hr/mL).
Another data set has as its target JAK2 (Homo sapiens (Human), UniProt O60674). Kind of data set: Biochemical JAK kinase assay (LanthaScreen), JAK2. The following applies: converted from pIC50 with Cheng-Prusoff equation. How it is done: as §1, §2, §3, §4

Sequence of JAK2 (O60674 whole entry): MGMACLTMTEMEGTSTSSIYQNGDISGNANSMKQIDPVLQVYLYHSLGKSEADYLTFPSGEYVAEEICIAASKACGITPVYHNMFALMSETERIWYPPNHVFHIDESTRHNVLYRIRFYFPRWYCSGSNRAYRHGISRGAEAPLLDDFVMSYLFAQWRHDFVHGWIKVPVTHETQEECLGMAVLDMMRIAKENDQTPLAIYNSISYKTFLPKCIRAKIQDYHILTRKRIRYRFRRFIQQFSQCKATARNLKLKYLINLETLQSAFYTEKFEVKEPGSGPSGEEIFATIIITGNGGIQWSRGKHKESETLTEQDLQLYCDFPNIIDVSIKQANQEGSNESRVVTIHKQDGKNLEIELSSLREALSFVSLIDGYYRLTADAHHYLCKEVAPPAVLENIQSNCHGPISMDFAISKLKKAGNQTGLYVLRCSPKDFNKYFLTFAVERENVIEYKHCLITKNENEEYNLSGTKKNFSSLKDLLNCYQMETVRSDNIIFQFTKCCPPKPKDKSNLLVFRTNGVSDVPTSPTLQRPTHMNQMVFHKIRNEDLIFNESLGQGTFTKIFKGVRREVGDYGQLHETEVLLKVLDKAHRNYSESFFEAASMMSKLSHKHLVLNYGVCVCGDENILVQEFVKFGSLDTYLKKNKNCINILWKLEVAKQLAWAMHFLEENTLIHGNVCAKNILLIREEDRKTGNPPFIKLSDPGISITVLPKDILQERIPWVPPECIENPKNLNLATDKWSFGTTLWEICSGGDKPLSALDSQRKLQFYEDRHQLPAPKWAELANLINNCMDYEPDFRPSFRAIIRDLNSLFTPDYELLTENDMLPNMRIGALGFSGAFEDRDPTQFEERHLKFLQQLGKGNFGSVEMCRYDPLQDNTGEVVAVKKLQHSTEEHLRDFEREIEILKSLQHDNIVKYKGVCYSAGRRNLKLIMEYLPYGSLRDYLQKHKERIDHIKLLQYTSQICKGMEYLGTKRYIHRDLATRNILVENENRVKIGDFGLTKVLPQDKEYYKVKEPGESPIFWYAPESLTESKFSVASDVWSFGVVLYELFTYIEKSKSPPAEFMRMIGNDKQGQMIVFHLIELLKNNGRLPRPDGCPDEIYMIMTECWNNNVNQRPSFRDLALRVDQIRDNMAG
Sequence of JAK3 (P52333 whole entry): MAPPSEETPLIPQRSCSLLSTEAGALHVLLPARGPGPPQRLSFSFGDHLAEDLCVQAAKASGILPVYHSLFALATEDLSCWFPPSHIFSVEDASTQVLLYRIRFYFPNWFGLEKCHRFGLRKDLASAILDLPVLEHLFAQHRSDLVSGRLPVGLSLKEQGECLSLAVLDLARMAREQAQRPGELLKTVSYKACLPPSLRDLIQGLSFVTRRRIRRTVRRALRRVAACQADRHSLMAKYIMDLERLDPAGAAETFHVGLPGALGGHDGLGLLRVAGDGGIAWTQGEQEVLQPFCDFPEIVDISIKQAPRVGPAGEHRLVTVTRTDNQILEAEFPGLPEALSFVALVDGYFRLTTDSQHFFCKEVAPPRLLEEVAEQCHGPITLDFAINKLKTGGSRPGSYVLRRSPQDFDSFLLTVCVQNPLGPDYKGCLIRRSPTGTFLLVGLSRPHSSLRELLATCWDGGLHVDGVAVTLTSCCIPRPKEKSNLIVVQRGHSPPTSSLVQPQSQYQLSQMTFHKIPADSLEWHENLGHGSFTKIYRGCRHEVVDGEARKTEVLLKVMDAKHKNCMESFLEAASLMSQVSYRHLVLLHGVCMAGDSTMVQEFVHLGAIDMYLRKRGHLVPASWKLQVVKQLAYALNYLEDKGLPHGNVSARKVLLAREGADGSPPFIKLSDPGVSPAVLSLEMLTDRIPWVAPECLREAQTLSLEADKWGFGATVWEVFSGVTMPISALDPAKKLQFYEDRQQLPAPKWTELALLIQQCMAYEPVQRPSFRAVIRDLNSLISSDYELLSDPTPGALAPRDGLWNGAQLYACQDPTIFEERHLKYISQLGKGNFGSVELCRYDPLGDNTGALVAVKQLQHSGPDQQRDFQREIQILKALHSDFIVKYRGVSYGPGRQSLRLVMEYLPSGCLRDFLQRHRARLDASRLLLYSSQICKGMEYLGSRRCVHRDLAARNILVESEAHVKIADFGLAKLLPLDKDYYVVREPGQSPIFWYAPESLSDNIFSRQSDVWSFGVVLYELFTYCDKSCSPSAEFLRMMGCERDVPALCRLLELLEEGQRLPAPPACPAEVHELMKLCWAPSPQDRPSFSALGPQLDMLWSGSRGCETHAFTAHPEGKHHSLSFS
Sequence of JAK1 (P23458 whole entry): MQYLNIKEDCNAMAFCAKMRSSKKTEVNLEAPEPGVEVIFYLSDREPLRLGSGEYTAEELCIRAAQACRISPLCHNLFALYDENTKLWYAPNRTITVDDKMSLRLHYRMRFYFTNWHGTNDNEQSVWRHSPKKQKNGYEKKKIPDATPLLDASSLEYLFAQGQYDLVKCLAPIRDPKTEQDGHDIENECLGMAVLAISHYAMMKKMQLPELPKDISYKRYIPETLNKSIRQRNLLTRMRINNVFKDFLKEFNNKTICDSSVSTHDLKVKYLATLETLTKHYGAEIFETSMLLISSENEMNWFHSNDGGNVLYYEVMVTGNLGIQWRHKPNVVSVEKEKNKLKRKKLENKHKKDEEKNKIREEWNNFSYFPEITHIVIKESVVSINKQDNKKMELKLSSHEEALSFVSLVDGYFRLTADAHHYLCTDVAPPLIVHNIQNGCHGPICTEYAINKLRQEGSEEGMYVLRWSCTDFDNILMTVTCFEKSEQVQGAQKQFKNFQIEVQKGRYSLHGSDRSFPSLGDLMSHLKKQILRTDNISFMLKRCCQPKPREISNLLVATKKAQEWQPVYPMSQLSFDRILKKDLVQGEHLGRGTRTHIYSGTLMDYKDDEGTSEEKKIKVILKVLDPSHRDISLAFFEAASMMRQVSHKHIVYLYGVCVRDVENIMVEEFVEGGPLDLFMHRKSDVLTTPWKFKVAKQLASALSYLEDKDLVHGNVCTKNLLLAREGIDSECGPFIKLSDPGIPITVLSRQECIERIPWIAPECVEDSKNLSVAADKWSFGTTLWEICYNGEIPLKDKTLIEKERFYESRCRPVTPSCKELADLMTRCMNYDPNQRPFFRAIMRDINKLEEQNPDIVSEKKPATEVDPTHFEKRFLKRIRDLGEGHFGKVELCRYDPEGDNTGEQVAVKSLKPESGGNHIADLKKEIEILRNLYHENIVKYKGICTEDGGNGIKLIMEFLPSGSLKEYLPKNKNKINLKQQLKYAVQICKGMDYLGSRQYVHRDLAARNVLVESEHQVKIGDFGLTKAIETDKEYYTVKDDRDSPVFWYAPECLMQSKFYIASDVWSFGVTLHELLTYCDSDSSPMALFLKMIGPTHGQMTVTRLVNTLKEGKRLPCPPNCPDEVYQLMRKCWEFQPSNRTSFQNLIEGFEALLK

Usually Ki stands for the equilibrium dissociation constant of an inhibitor or competing ligand from its target. Higher therefore signals weaker binding. A word on the IC50: it is the concentration needed to halve the response being measured. For the compound `CCCN1Cc2[nH]c(-c3n[nH]c4cc(-c5cc(F)c(O)cc5CC)ccc34)nc2C[C@H]1C(=O)N1CC(N(C)C)C1` [Example 4, (S)-(3-(dimethylamino)azetidin-1-yl)(2-(6-(2-ethyl-5-fluoro-4-hydroxyphenyl)-1H-indazol-3-yl)-5-propyl-4,5,6,7-tetrahydro-3H-imidazo[4,5-c]pyridin-6-yl)methanone], the Ki was determined as 0.06 nM at JAK1 and 0.13 nM at JAK3. In addition, in data set [1] (Homo sapiens), 7.4 nM corresponded to half-maximal inhibition (IC50). In addition, in data set [2], the “pSTAT6 inhibition Assay 4” value was “A (A represents between 60% and 80% inhibition)”. In data set [3], the “Percent Inhibition of Alternaria-induced BALF Eosinophils” value was determined as 79%. Moreover, the “Lung to Plasma ratio Assay 3” value in data set [4] was “C (C denotes a ratio between 20 and 50)”.
In turn, `CCc1cc(O)c(F)cc1-c1ccc2c(-c3nc4c([nH]3)CN(CC)[C@@H](C(=O)N3CC(N5CCCCC5)C3)C4)n[nH]c2c1` [Example 8-15] registered a Ki on JAK2 of 0.03 nM. Also, 5.6 nM corresponded to half-maximal inhibition in data set [1] (IC50). Moreover, the “pSTAT6 inhibition Assay 4” value in data set [2] is “C (C represents between 25% and 40% inhibition)”.

Source of the values: patent US10196393B2, “JAK inhibitors containing a 4-membered heterocyclic amide” (THERAVANCE BIOPHARMA R&D IP, LLC, priority 2017, dated 2019).
